Consider 22 compounds from ChEMBL document CHEMBL3813697, “Design, synthesis, and anticancer activity of C8-substituted-4'-thionucleosides as potential HSP90 inhibitors” (Bioorg Med Chem, 2016).

Active and inactive are the calls of the source. No cut-off for these calls is given here.

Assay [1] has as its target Heat shock protein HSP90 (Homo sapiens) (UniProt P07900+P08238). The assay is described as follows: Competitive inhibition of recombinant HSP90 (unknown origin) at 100 uM measured after 3 hrs using FITC-labeled geldanamycin by fluorescence polarization assay. For orientation: Polarisation of emitted light reports the rotation of a fluorescent probe.
For a further assay, the system named is A549. In words: Anticancer activity against human A549 cells measured after 72 hrs by SRB assay. The format is functional, cell-based. The note with it: A549, 72 h. Background: The SRB assay estimates cell density from bound dye.
Assay [2] can be described thus: Anticancer activity against human Caki1 cells measured after 72 hrs by SRB assay. The note with it: CAKI-1, 72 h. The format is functional, cell-based.
Assay [3] is described as follows: Anticancer activity against human HCT116 cells measured after 72 hrs by SRB assay. The format is functional, cell-based. The note with it: HCT-116, 72 h.
Assay [4] is described as follows: Anticancer activity against human SNU638 cells measured after 72 hrs by SRB assay. The note with it: SNU-638, 72 h. The format is functional, cell-based.
For a further assay, the system named is MDA-MB-231. The assay is described as follows: Anticancer activity against human MDA-MB-231 cells measured after 72 hrs by SRB assay. The format is functional, cell-based. The note with it: MDA-MB-231, 72 h.

As usually defined, the inhibition is the drop in the measured response relative to a control, in per cent. Broadly, the IC50 is the concentration that gives 50% inhibition.

Turning to `CNc1nc2c(N)ncnc2n1[C@@H]1S[C@H](CO)[C@@H](O)[C@H]1O`, the inhibition result in assay [1] is “inactive”. Same read-out and setting: next, `Nc1ncnc2c1nc(N1CCCCC1)n2[C@@H]1S[C@H](CO)[C@@H](O)[C@H]1O`: “inactive”; `O[C@@H]1[C@H](O)CS[C@H]1n1c(-c2cccs2)nc2c(Cl)ncnc21`: “inactive”; `[N-]=[N+]=Nc1nc2c(Cl)ncnc2n1[C@@H]1SC[C@@H](O)[C@H]1O`: “inactive”. The same measure, in the same setting: under `Nc1ncnc2c1nc(N1CCCCC1)n2[C@@H]1SC[C@@H](O)[C@H]1O` stands “inactive”; under `CCCNc1nc2c(N)ncnc2n1[C@@H]1SC[C@@H](O)[C@H]1O`, “inactive”.

Turning to `CNc1ncnc2c1nc(-c1ccco1)n2[C@@H]1SC[C@@H](O)[C@H]1O`, in assay [1], the inhibition entry was “inactive”. Regarding `CNc1ncnc2c1nc(-c1cccs1)n2[C@@H]1SC[C@@H](O)[C@H]1O`, the inhibition result in assay [1] was “inactive”.

Take `Nc1ncnc2c1nc(-c1cccs1)n2[C@@H]1S[C@H](CO)[C@@H](O)[C@H]1O`: the inhibition entry in assay [1] was “inactive”. As for `CNc1nc2c(N)ncnc2n1[C@@H]1SC[C@@H](O)[C@H]1O`, the inhibition entry in assay [1] was “inactive”. For `COC1=C2C[C@@H](C)C[C@H](OC)[C@H](O)[C@@H](C)/C=C(\C)[C@H](OC(N)=O)[C@@H](OC)/C=C\C=C(/C)C(=O)NC(=CC1=O)C2=O` [GELDANAMYCIN], the half-maximal inhibitory concentration (IC50) is 109 nM with A549; 56 nM in assay [2]; 150 nM in assay [3]; 30 nM in assay [4]; 110 nM in the assay on MDA-MB-231. For the compound `[N-]=[N+]=Nc1nc2c(N)ncnc2n1[C@@H]1SC[C@@H](O)[C@H]1O`, in assay [1], the inhibition entry is “inactive”.

On to `Nc1ncnc2c1nc(-c1ccco1)n2[C@@H]1S[C@H](CO)[C@@H](O)[C@H]1O`, for which the inhibition entry in assay [1] is “inactive”. Same read-out and setting: next, `[N-]=[N+]=Nc1nc2c(N)ncnc2n1[C@@H]1S[C@H](CO)[C@@H](O)[C@H]1O`: “inactive”. On the same count and under the same terms, next, `Nc1ncnc2c1nc(NCc1ccccc1)n2[C@@H]1SC[C@@H](O)[C@H]1O`: “inactive”; `Nc1ncnc2c1nc(-c1ccco1)n2[C@@H]1SC[C@@H](O)[C@H]1O`: “inactive”; `Nc1ncnc2c1nc(-c1ccccc1)n2[C@@H]1S[C@H](CO)[C@@H](O)[C@H]1O`: “inactive”. For the compound `Nc1ncnc2c1nc(I)n2[C@@H]1SC[C@@H](O)[C@H]1O`, the inhibition in assay [1] came out at 11%.

For `CCCNc1nc2c(N)ncnc2n1[C@@H]1S[C@H](CO)[C@@H](O)[C@H]1O`, in assay [1], the inhibition result is “inactive”.

`O[C@@H]1[C@H](O)CS[C@H]1n1c(-c2ccco2)nc2c(Cl)ncnc21`: the inhibition entry in assay [1] is “inactive”. On the same count and under the same terms, next, `Nc1ncnc2c1nc(-c1cccs1)n2[C@@H]1SC[C@@H](O)[C@H]1O`: “inactive”. `Nc1ncnc2c1nc(NCc1ccc3c(c1)OCO3)n2[C@@H]1SC[C@@H](O)[C@H]1O`: the IC50 (with A549; in assay [2]; in assay [3]; in assay [4]; with MDA-MB-231) was above 100000 nM each time. The inhibition result in assay [1] was “inactive”.
